In patent US20170296550A1, “ARYL SULTAM DERIVATIVES AS RORc MODULATORS” (Genentech, Inc., priority 2013, published 2017) one finds IC50 data, which are given here for 13 compounds.

The target in the experiment is T1, RORc (Homo sapiens, UniProt P51449).
T1 construct: host or cells: E. coli
T1 sequence (P51449 269-508 limits assumed): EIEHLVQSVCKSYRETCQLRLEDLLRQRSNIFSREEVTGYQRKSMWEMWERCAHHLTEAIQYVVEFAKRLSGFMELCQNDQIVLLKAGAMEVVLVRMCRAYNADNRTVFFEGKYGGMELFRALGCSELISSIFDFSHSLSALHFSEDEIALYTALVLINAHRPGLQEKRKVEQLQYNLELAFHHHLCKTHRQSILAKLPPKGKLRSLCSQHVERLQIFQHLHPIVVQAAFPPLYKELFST
In words: In Vitro RORc Ligand Binding Assay (25-[3H]hydroxycholesterol radioligand, filter plate). Particulars: RORc ligand binding domain 0.6 ug/mL; 6 nM 25-[3H]hydroxycholesterol; 3 h at 25° C. As for the experimental part: Example 68 In Vitro RORc Ligand Binding Assay
This assay was used to determine a compound's potency in inhibiting activity of RORc by determining, Kiapp, IC50, or percent inhibition values.
On day of the assay, 100 uL of 0.05% CHAPS (in deionized H2O) was added to all wells of the GFB Unifilter plate and allowed soak for 1 h. A wash buffer of 50 mM HEPES (pH 7.4), 150 mM NaCl, and 5 mM MgCl2 was prepared to wash the filter plate. To prepare an assay buffer, BSA was added to the wash buffer to reach 0.01% and DTT was added to reach 1 mM.
For IC50 mode, 10 mM compound stocks were serially diluted in DMSO with DMSO to give 20× required final concentration in DMSO (15 uL compound+30 uL DMSO). The 20× compound stocks were diluted in DMSO with Assay Buffer 4-fold to reach 5× the final test concentration in 25% DMSO (10 uL compound+30 uL Assay Buffer). Solutions were mixed by aspiration several times with a pipette set on 50 uL volume. For the assay, 10 uL of 5× compound stock solutions in 25% DMSO were added to the assay plate in duplicate.
For two point screening, 10 mM stock compound solutions were diluted in DMSO to obtain 200 uM (20× the high test concentration) and then diluted 10-fold further to reach 20 uM (20× the low test concentration). The 20× stocks were diluted 4-fold with Assay Buffer (10 uL compound+30 uL Assay Buffer) to reach 5× the test concentrations (50 uM and 5 uM) and 10 uL were added to two assay plates for the duplicate wells. With each concentration tested on 2 plates, each set of 80 compounds used 4 assay plates (1 uM and 10 uM, with n=2).
25-hydroxycholesterol (1 uM) was used to determine the level of NSB signal is prepared in DMSO as for compounds above, then diluted in Assay Buffer to give a final concentration of 5 uM. For 25-hydroxycholesterol in 25% DMSO/75% Assay Buffer; 10 uL per well was used for NSB samples. Wells for Total Binding and No Receptor sample determination contained 10 uL of 25% DMSO/75% Assay Buffer per well.
Radioligand (25-[^3H]hydroxycholesterol) Preparation
25-[^3H]hydroxycholesterol was dilute in Assay Buffer to obtain 15 nM and vortex to mix. Add 20 uL to all wells to reach 6 nM final in the assay.
Stock receptor solution was diluted in assay buffer to obtain 1.5 ug/mL in Assay Buffer. 20 uL was added to all wells. For No R samples, 20 uL Assay Buffer was substituted for receptor solution.
Assay plates were 96-well polypropylene V-bottom plates. 10 uL of 5× compound in 25% DMSO/75% Assay Buffer was added to Test wells. 10 uL of 25% DMSO/75% Assay Buffer was added to Total Binding or No Receptor wells. 10 uL of 5 uM 25-hydroxycholesterol in 25% DMSO/75% Assay Buffer was added to NSB wells. 20 uL of 15 nM 25-[^3H]hydroxycholesterol prepared in Assay Buffer was added to all wells. 20 uL of 1.5 ug/mL RORc receptor was added to wells (or […] Assay Buffer to No R wells). Following addition to the wells, the plates were incubated 3 h at 25° C.
Using a Packard Filtermate Harvester, the filter plate were washed 4 times following transfer of the incubated samples. Plates were dry-filtered completely (2 h at 50° C. or overnight at room temperature). 50 uL Microscint 0 was added to all wells and read on Topcount protocol Inverted.
Final concentrations were as follows: 50 mM HEPES buffer (pH 7.4); 150 mM NaCl; 1 mM DTT; 5 mM MgCl2; 0.01% BSA; 5% DMSO; 0.6 ug/mL RORc receptor; 6 nM 25-[^3H]hydroxycholesterol. For NSB wells, 1 uM 25-hydroxycholesterol was also present.
`C[C@H]1CCC(c2ccccc2)S(=O)(=O)N1Cc1ccc(C(=O)NCc2ccno2)cc1` (stereo partly drawn) [Example 19, N-Isoxazol-5-ylmethyl-4-((3S)-3-methyl-1,1-dioxo-6-phenyl-[1,2]thiazinan-2-ylmethyl)-benzamide]: the 50% inhibitory concentration (IC50) – broadly, the concentration that inhibits the measured activity by half – is 985 nM. As to `Cc1nn(C)cc1NC(=O)c1ccc(CN2[C@@H](C)CCC(c3ccccc3)S2(=O)=O)cc1` (stereo partly drawn) [Example 20, N-(1,3-Dimethyl-1H-pyrazol-4-yl)-4-((3S)-3-methyl-1,1-dioxo-6-phenyl-[1,2]thiazinan-2-ylmethyl)-benzamide], the IC50 stood at 2110 nM. `C[C@H]1CCC(c2ccccc2)S(=O)(=O)N1Cc1ccc(-c2cccc(S(C)(=O)=O)c2)cc1F` (stereo partly drawn) [Example 23, (3S)-2-(3-Fluoro-3′-methanesulfonyl-biphenyl-4-ylmethyl)-3-methyl-6-phenyl-[1,2]thiazinane 1,1-dioxide] gave an IC50 of 212 nM. The result for `C[C@H]1CCC(c2ccccc2)S(=O)(=O)N1Cc1ccc(-c2ccc(C#N)nc2)cc1F` (stereo partly drawn) [Example 24, 5-[3-Fluoro-4-((3S)-3-methyl-1,1-dioxo-6-phenyl-[1,2]thiazinan-2-ylmethyl)-phenyl]-pyridine-2-carbonitrilc] reads 110 nM; that for `CC(=O)Nc1ccc(-c2ccc(CN3[C@@H](C)CCC(c4ccccc4)S3(=O)=O)c(F)c2)cn1` (stereo partly drawn) [Example 26, N-{5-[3-Fluoro-4-((3S)-3-methyl-1,1-dioxo-6-phenyl-[1,2]thiazinan-2-ylmethyl)-phcnyl]-pyridin-2-yl}-acetamide], 1910 nM. For `C[C@H]1CCC(c2ccccc2)S(=O)(=O)N1Cc1ccc(-c2ccc(C#N)cc2)cc1F` (stereo partly drawn) [Example 27, 3′-Fluoro-4′-((3S)-3-methyl-1,1-dioxo-6-phenyl-[1,2]thiazinan-2-ylmethyl)-biphenyl-4-carbonitrile] the value was 102 nM; for `C[C@H]1CCC(c2ccccc2)S(=O)(=O)N1Cc1ccc(-c2ccc(C(N)=O)cc2)cc1F` (stereo partly drawn) [Example 28, 3′-Fluoro-4′-((3S)-3-methyl-1,1-dioxo-6-phenyl-[1,2]thiazinan-2-ylmethyl)-biphenyl-4-carboxylic acid amide], 37 nM; for `C[C@H]1CCC(c2ccccc2)S(=O)(=O)N1Cc1ccc(-c2cnn(C)c2)cc1F` (stereo partly drawn) [Example 29, (3S)-2-[2-Fluoro-4-(1-methyl-1H-pyrazol-4-yl)-benzyl]-3-methyl-6-phenyl-[1,2]thiazinane 1,1-dioxide], 727 nM.

In turn, `C[C@H]1CCC(c2ccccc2)S(=O)(=O)N1Cc1ccc(-c2ccc(S(C)(=O)=O)cc2)cc1F` (stereo partly drawn) [Example 31, (3S)-2-(3-Fluoro-4′-methanesulfonyl-biphenyl-4-ylmethyl)-3-methyl-6-phenyl-[1,2]thiazinane 1,1-dioxide] showed an IC50 of 28 nM. For `C[C@H]1CCC(c2ccccc2)S(=O)(=O)N1Cc1ccc(-c2ccccc2)cc1F` (stereo partly drawn) [Example 32, (3S)-2-(3-Fluoro-biphenyl-4-ylmethyl)-3-methyl-6-phenyl-[1,2]thiazinane 1,1-dioxide] the value was 161 nM; for `C[C@H]1CCC(c2ccccc2)S(=O)(=O)N1Cc1ccc(-c2ccc(NS(C)(=O)=O)cc2)cc1F` (stereo partly drawn) [Example 33, N-[3′-Fluoro-4′-((3S)-3-methyl-1,1-dioxo-6-phenyl-[1,2]thiazinan-2-ylmethyl)-biphenyl-4-yl]-methanesulfonamide], 44 nM. For `C[C@H]1CCC(c2ccccc2)S(=O)(=O)N1Cc1ccc(-c2ccncc2)cc1F` (stereo partly drawn) [Example 34, (3S)-2-(2-Fluoro-4-pyridin-4-yl-benzyl)-3-methyl-6-phenyl-[1,2]thiazinane 1,1-dioxide] the value was 463 nM; for `Cc1noc(C)c1-c1ccc(CN2[C@@H](C)CCC(c3ccccc3)S2(=O)=O)c(F)c1` (stereo partly drawn) [Example 35, (3S)-2-[4-(3,5-Dimethyl-isoxazol-4-yl)-2-fluoro-benzyl]-3-methyl-6-phenyl-[1,2]thiazinane 1,1-dioxide], 534 nM.
